Data as given in ChEMBL document CHEMBL1221187, “Histone deacetylase inhibitors reverse gene silencing in Friedreich's ataxia” (Nat Chem Biol, 2006).
Active and inactive are the calls of the source. No cut-off for these calls is given here.

What was measured:
[1] = Cytotoxicity against human GM15850 cells at 5 uM after 96 hrs by trypan blue exclusion assay; type: cell-based; details: gm15850, 96 h
GM15850 [2] = experiment: Increase in FXN mRNA expression in human GM15850 cells at 5 uM after 96 hrs by qRT-PCR analysis relative to control; type: functional
Histone deacetylase = experiment: Inhibition of HDAC in human HeLa cell extract by fluorescence plate reader assay; type: cell-free
Lymphocyte [3] = experiment: Increase in FXN mRNA expression in healthy human lymphocytes at 5 uM after 48 hrs by qRT-PCR analysis; type: functional
GM15850 [4] = experiment: Increase in frataxin protein level in human GM15850 cells at 5 uM after 4 days by SDS-PAGE relative to control; type: functional
[5] = Cytotoxicity against human GM15850 cells at 5 uM after 12 hrs by trypan blue exclusion assay; type: cell-based; details: gm15850, 12 h
Lymphocyte [6] = experiment: Increase in FXN mRNA expression in lymphocytes isolated from patient with Friedreich's ataxia at 5 uM after 48 hrs by qRT-PCR analysis relative to control; type: functional, Homo sapiens
GM15850 [7] = experiment: Increase in FXN mRNA expression in human GM15850 cells at 5 uM after 12 hrs by qRT-PCR analysis relative to control; type: functional
[8] = Cytotoxicity against lymphocytes isolated from patient with Friedreich's ataxia at 2.5 to 5 uM after 48 hrs by trypan blue exclusion assay; type: cell-based; details: human, lymphocyte
Lymphocyte [9] = experiment: Effect on FXN mRNA expression in healthy human lymphocytes at 2.5 uM after 48 hrs by qRT-PCR analysis; type: functional, cell-based
Lymphocyte [10] = experiment: Increase in FXN mRNA expression in lymphocytes isolated from patient with Friedreich's ataxia at 2.5 uM after 48 hrs by qRT-PCR analysis; type: functional, Homo sapiens
Lymphocyte [11] = experiment: Increase in FXN mRNA expression in lymphocytes isolated from patient with Friedreich's ataxia at 5 uM after 48 hrs by qRT-PCR analysis; type: functional, Homo sapiens
Lymphocyte [12] = experiment: Increase in FXN mRNA expression in lymphocytes isolated from patient with Friedreich's ataxia at 10 uM after 48 hrs by qRT-PCR analysis; type: functional, cell-based; details: Homo sapiens
[13] = Decrease in FXN mRNA expression in human GM15850 cells at 5 uM after 12 hrs by qRT-PCR analysis; type: functional, cell-based
[14] = target: T1, Histone deacetylase (Homo sapiens) (UniProt Q13547+O15379+Q9UBN7+Q92769+Q9UQL6+Q8WUI4+Q9BY41+Q96DB2+P56524+Q9UKV0+Q969S8); experiment: Inhibition of HDAC in human GM15850 cells assessed as increase in histone H4 lysine 8 acetylation of FXN gene at 5 uM after 96 hrs by chromatin immunoprecipitation assay; type: cell-based
Lymphocyte [15] = experiment: Increase in FXN mRNA expression in lymphocytes isolated from patient with Friedreich's ataxia at 5 uM after 48 hrs by qRT-PCR analysis relative to mRNA level in healthy human lymphocytes; type: functional
[16] = target: T1, Histone deacetylase (Homo sapiens); experiment: Inhibition of HDAC in human GM15850 cells assessed as increase in histone H4 lysine 5 acetylation of FXN gene at 5 uM after 96 hrs by chromatin immunoprecipitation assay; type: cell-based
[17] = target: T1, Histone deacetylase (Homo sapiens); experiment: Inhibition of HDAC in human GM15850 cells assessed as increase in histone H4 lysine 12 acetylation of FXN gene at 5 uM after 96 hrs by chromatin immunoprecipitation assay; type: cell-based
[18] = target: T1, Histone deacetylase (Homo sapiens); experiment: Inhibition of HDAC in human GM15850 cells assessed as increase in histone H3 lysine 14 acetylation of FXN gene at 5 uM after 96 hrs by chromatin immunoprecipitation assay; type: cell-based
[19] = target: T1, Histone deacetylase (Homo sapiens); experiment: Inhibition of HDAC in human GM15850 cells assessed as increase in histone H4 lysine 16 acetylation of FXN gene at 5 uM after 96 hrs by chromatin immunoprecipitation assay; type: cell-based
[20] = target: T1, Histone deacetylase (Homo sapiens); experiment: Inhibition of HDAC in human GM15850 cells assessed as increase in histone H3 lysine 9 acetylation of FXN gene at 5 uM after 96 hrs by chromatin immunoprecipitation assay; type: cell-based
GM15850 [21] = experiment: Increase in frataxin protein level in human GM15850 cells at 2.5 uM after 4 days by SDS-PAGE relative to control; type: functional
Lymphocyte [22] = experiment: Increase in FXN mRNA expression in lymphocytes isolated from patient with Friedreich's ataxia at 10 uM after 48 hrs by qRT-PCR analysis relative to mRNA level in healthy human lymphocytes; type: functional
Lymphocyte [23] = experiment: Increase in FXN mRNA expression in lymphocytes isolated from patient with Friedreich's ataxia at 2.5 to 7.5 uM after 48 hrs by qRT-PCR analysis; type: functional, cell-based; details: Homo sapiens
GM15850 [24] = experiment: Increase in FXN mRNA expression in human GM15850 cells at 10 uM after 96 hrs by qRT-PCR analysis relative to control; type: functional
GM15850 [25] = experiment: Effect on FXN mRNA expression in human GM15850 cells at 5 uM after 12 hrs by qRT-PCR analysis; type: functional, cell-based
[26] = target: T1, Histone deacetylase (Homo sapiens); experiment: Inhibition of HDAC in human GM15850 cells assessed as increase in total acetylated histone level at 400 uM after 12 hrs by Western blot analysis; type: cell-based

Row | SMILES | Activity [1] | fold change (FC) (GM15850 [2]) | IC50 (Histone deacetylase) | further results
1 | COc1ccc(NC(=O)CCCCCC(=O)Nc2ccccc2)cc1 | Non-toxic | 2.5 | 438 µM | 
2 | Nc1ccccc1NC(=O)CCCCCCC(=O)Nc1ccccc1 | Non-toxic | 1.4 | 87 µM | Activity (Lymphocyte [3]): inactive; fold change (FC) (GM15850 [4]): 3; Activity [5]: Non-toxic; fold change (FC) (Lymphocyte [6]): 1.8; fold change (FC) (GM15850 [7]): 2; Activity [8]: Non-toxic; Activity (Lymphocyte [9]): inactive; Activity (Lymphocyte [10]): 33%; Activity (Lymphocyte [11]): 80%
3 | Nc1ccc(NC(=O)CCCCCCC(=O)Nc2ccccc2)cc1 | Non-toxic | 2 | 186 µM | 
4 | O=C(CCCCCCC(=O)Nc1ccccn1)Nc1ccccc1 | Non-toxic | 2 | 99 µM | Activity (Lymphocyte [12]): inactive
5 | Nc1cccc(NC(=O)CCCCCCC(=O)Nc2ccccc2)c1 | Non-toxic | 2.1 | 85 µM | 
6 | O=C(CCCCCCC(=O)NO)NO [SUBEROHYDROXAMIC ACID] | Non-toxic |  |  | inhibition [13]: 50%
7 | Nc1cccc(NC(=O)CCCCCC(=O)Nc2ccccc2)c1 | Non-toxic | 1.5 | 500 µM | 
8 | O=C(CCCCCC(=O)Nc1cccc2cccnc12)Nc1ccccc1 | Non-toxic | 3 | 17 µM | 
9 | Nc1ccc(NC(=O)CCCCCC(=O)Nc2ccccc2)cc1 | Non-toxic | 2.6 | 123 µM | Activity (Lymphocyte [12]): inactive
10 | Nc1ccccc1NC(=O)CCCCCC(=O)Nc1ccccc1 | Non-toxic | 2.5 | 78 µM | Activity (Lymphocyte [3]): 38%; Activity [14]: inactive; Activity (Lymphocyte [15]): 80%; Activity [16]: Active; Activity [17]: Active; Activity [18]: Active; Activity [19]: inactive; Activity [20]: inactive; fold change (FC) (Lymphocyte [6]): 2.3; fold change (FC) (GM15850 [21]): 3; Activity [8]: Non-toxic; Activity (Lymphocyte [9]): inactive; Activity (Lymphocyte [10]): 33%; Activity (Lymphocyte [22]): 160%; Activity (Lymphocyte [11]): 130%; Activity (Lymphocyte [23]): Active
11 | O=C(CCCCCC(=O)Nc1cnc2ccccc2c1)Nc1ccccc1 | Non-toxic | 2.5 | 84 µM | 
12 | COc1ccccc1NC(=O)CCCCCC(=O)Nc1ccccc1 | Non-toxic | 2.3 | 54 µM | 
13 | Nc1ccccc1NC(=O)CCCCCC(=O)Nc1ccccc1N | Non-toxic | 3.1 | 14 µM | fold change (FC) (GM15850 [24]): 3.5; Activity (Lymphocyte [12]): Active
14 | COc1cccc(NC(=O)CCCCCC(=O)Nc2ccccc2)c1 | Non-toxic | 1.8 | > 1 µM | 
15 | Nc1ccccc1NC(=O)CCCCCC(=O)Nc1ccccn1 | Non-toxic | 2.4 | 91 µM | Activity (Lymphocyte [12]): Active
16 | O=C(CCCCCCC(=O)Nc1ccccc1)NO [VORINOSTAT] | Toxic |  |  | Activity (GM15850 [25]): inactive
17 | Nc1ccccc1NC(=O)CCCCC(=O)Nc1ccccc1 | Non-toxic | 1.4 | 238 µM | 
18 | O=C(CCCCCC(=O)Nc1ccccc1)Nc1ccccc1 | Non-toxic |  |  | 
19 | CC(/C=C/C(=O)NO)=C\[C@@H](C)C(=O)c1ccc(N(C)C)cc1 [TRICHOSTATIN] | Toxic |  |  | 
20 | COc1ccccc1NC(=O)CCCCCCC(=O)Nc1ccccc1 | Non-toxic | 1.8 | 470 µM | 
21 | COc1ccc(NC(=O)CCCCCC(=O)Nc2ccccc2)c(OC)c1 | Non-toxic | 1.5 | 387 µM | 
22 | O=C(CCCCCC(=O)Nc1ccccn1)Nc1ccccc1 | Non-toxic | 2.6 | 140 µM | 
23 | CCCC(CCC)C(=O)O [VALPROIC ACID] | Non-toxic |  |  | inhibition [26]: Active
